# Assay results from PubChem BioAssay (NCI).
#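 GI50 is the concentration that inhibits growth by half. At the TGI there is no net growth.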
# Experiments:
# Test in all cases: NCI-60 cell line screen, 384-well format
# HCC-2998 colon = test system: HCC-2998 colon
# UACC-257 melanoma = test system: UACC-257 melanoma
# SF-295 CNS = test system: SF-295 CNS
# NCI/ADR-RES ovarian = test system: NCI/ADR-RES ovarian
# EKVX NSCLC = test system: EKVX NSCLC
# MDA-MB-435 melanoma = test system: MDA-MB-435 melanoma
# MDA-MB-231 breast = test system: MDA-MB-231 breast
# NCI-H226 lung = test system: NCI-H226 lung
# MOLT-4 leukemia = test system: MOLT-4 leukemia
# SF-268 CNS = test system: SF-268 CNS
# RXF 393 renal = test system: RXF 393 renal
# SK-MEL-28 melanoma = test system: SK-MEL-28 melanoma
# NCI-H460 NSCLC = test system: NCI-H460 NSCLC
# CAKI-1 renal = test system: CAKI-1 renal
# OVCAR-4 ovarian = test system: OVCAR-4 ovarian
# MCF7 breast = test system: MCF7 breast
# SW-620 colon = test system: SW-620 colon
# A549 NSCLC = test system: A549 NSCLC
# LOX IMVI melanoma = test system: LOX IMVI melanoma
# KM12 colon = test system: KM12 colon
# HOP-92 NSCLC = test system: HOP-92 NSCLC
# SF-539 CNS = test system: SF-539 CNS
# A498 renal = test system: A498 renal
# HCT-15 colon = test system: HCT-15 colon
# COLO 205 colon = test system: COLO 205 colon
# HL-60(TB) leukemia = test system: HL-60(TB) leukemia
# HT29 colon = test system: HT29 colon
# MALME-3M melanoma = test system: MALME-3M melanoma
# T-47D breast = test system: T-47D breast
# SNB-19 CNS = test system: SNB-19 CNS
# NCI-H23 lung = test system: NCI-H23 lung
# SN12C renal = test system: SN12C renal
# OVCAR-5 ovarian = test system: OVCAR-5 ovarian
# OVCAR-3 ovarian = test system: OVCAR-3 ovarian
# M14 melanoma = test system: M14 melanoma
# HOP-62 NSCLC = test system: HOP-62 NSCLC
# HCT-116 colon = test system: HCT-116 colon
# ACHN renal = test system: ACHN renal
# SK-MEL-2 melanoma = test system: SK-MEL-2 melanoma
# DU-145 prostate = test system: DU-145 prostate
# OVCAR-8 ovarian = test system: OVCAR-8 ovarian
# 786-0 renal = test system: 786-0 renal
# NCI-H322M lung = test system: NCI-H322M lung
# TK-10 renal = test system: TK-10 renal
# SR leukemia = test system: SR leukemia
# BT-549 breast = test system: BT-549 breast
# MDA-MB-468 breast = test system: MDA-MB-468 breast
# NCI-H522 lung = test system: NCI-H522 lung
# SK-MEL-5 melanoma = test system: SK-MEL-5 melanoma
# PC-3 prostate = test system: PC-3 prostate
# UO-31 renal = test system: UO-31 renal
# RPMI-8226 leukemia = test system: RPMI-8226 leukemia
# SNB-75 CNS = test system: SNB-75 CNS
# SK-OV-3 ovarian = test system: SK-OV-3 ovarian
# HS 578T breast = test system: HS 578T breast
# IGROV1 ovarian = test system: IGROV1 ovarian
# UACC-62 melanoma = test system: UACC-62 melanoma
# CCRF-CEM leukemia = test system: CCRF-CEM leukemia
# K-562 leukemia = test system: K-562 leukemia
# U251 glioblastoma = test system: U251 glioblastoma
smiles,measurement,setting,value
Cc1cc2cc(Oc3ccnc(Nc4cccc(CS(=O)(=O)NCCN(C)C)c4)n3)ccc2[nH]1,GI50,HCC-2998 colon,2.02 µM
same,TGI,HCC-2998 colon,3.98 µM
same,GI50,UACC-257 melanoma,1.84 µM
same,TGI,UACC-257 melanoma,3.26 µM
same,GI50,SF-295 CNS,8.49 µM
same,TGI,SF-295 CNS,21.1 µM
same,GI50,NCI/ADR-RES ovarian,15.3 µM
same,TGI,NCI/ADR-RES ovarian,28.8 µM
same,GI50,EKVX NSCLC,5.04 µM
same,TGI,EKVX NSCLC,16.7 µM
same,GI50,MDA-MB-435 melanoma,7.5 µM
same,TGI,MDA-MB-435 melanoma,19.6 µM
same,GI50,MDA-MB-231 breast,6.73 µM
same,TGI,MDA-MB-231 breast,19.1 µM
same,GI50,NCI-H226 lung,1.95 µM
same,TGI,NCI-H226 lung,12.5 µM
same,GI50,MOLT-4 leukemia,1.8 µM
same,TGI,MOLT-4 leukemia,3.24 µM
same,GI50,SF-268 CNS,3.93 µM
same,TGI,SF-268 CNS,14.1 µM
same,GI50,RXF 393 renal,1.83 µM
same,TGI,RXF 393 renal,4.32 µM
same,GI50,SK-MEL-28 melanoma,4.58 µM
same,TGI,SK-MEL-28 melanoma,12.4 µM
same,GI50,NCI-H460 NSCLC,2.62 µM
same,TGI,NCI-H460 NSCLC,6.54 µM
same,GI50,CAKI-1 renal,3.61 µM
same,TGI,CAKI-1 renal,13.9 µM
same,GI50,OVCAR-4 ovarian,12 µM
same,TGI,OVCAR-4 ovarian,24.4 µM
same,GI50,MCF7 breast,3.48 µM
same,TGI,MCF7 breast,12.7 µM
same,GI50,SW-620 colon,11.1 µM
same,TGI,SW-620 colon,23.3 µM
same,GI50,A549 NSCLC,7.13 µM
same,TGI,A549 NSCLC,19.4 µM
same,GI50,LOX IMVI melanoma,1.93 µM
same,TGI,LOX IMVI melanoma,4.2 µM
same,GI50,KM12 colon,0.736 µM
same,TGI,KM12 colon,12.2 µM
same,GI50,HOP-92 NSCLC,2.51 µM
same,TGI,HOP-92 NSCLC,7.51 µM
same,GI50,SF-539 CNS,2.04 µM
same,TGI,SF-539 CNS,6.29 µM
same,GI50,A498 renal,3.08 µM
same,TGI,A498 renal,11.1 µM
same,GI50,HCT-15 colon,5.47 µM
same,TGI,HCT-15 colon,16.7 µM
same,GI50,COLO 205 colon,4.4 µM
same,TGI,COLO 205 colon,10.2 µM
same,GI50,HL-60(TB) leukemia,2.45 µM
same,TGI,HL-60(TB) leukemia,5.63 µM
same,GI50,HT29 colon,2.4 µM
same,TGI,HT29 colon,6.03 µM
same,GI50,MALME-3M melanoma,1.84 µM
same,TGI,MALME-3M melanoma,3.34 µM
same,GI50,T-47D breast,7.08 µM
same,TGI,T-47D breast,19.2 µM
same,GI50,SNB-19 CNS,8.83 µM
same,TGI,SNB-19 CNS,21.2 µM
same,GI50,NCI-H23 lung,2.51 µM
same,TGI,NCI-H23 lung,8.7 µM
same,GI50,SN12C renal,3.66 µM
same,TGI,SN12C renal,13.2 µM
same,GI50,OVCAR-5 ovarian,3.81 µM
same,TGI,OVCAR-5 ovarian,13.1 µM
same,GI50,OVCAR-3 ovarian,6.2 µM
same,TGI,OVCAR-3 ovarian,18 µM
same,GI50,M14 melanoma,3.38 µM
same,TGI,M14 melanoma,7.81 µM
same,GI50,HOP-62 NSCLC,7.38 µM
same,TGI,HOP-62 NSCLC,20.2 µM
same,GI50,HCT-116 colon,3.29 µM
same,TGI,HCT-116 colon,11.8 µM
same,GI50,ACHN renal,6.45 µM
same,TGI,ACHN renal,19 µM
same,GI50,SK-MEL-2 melanoma,2.64 µM
same,TGI,SK-MEL-2 melanoma,6.28 µM
same,GI50,DU-145 prostate,8.4 µM
same,TGI,DU-145 prostate,20.8 µM
same,GI50,OVCAR-8 ovarian,9.99 µM
same,TGI,OVCAR-8 ovarian,22.1 µM
same,GI50,786-0 renal,3.36 µM
same,TGI,786-0 renal,11.9 µM
same,GI50,NCI-H322M lung,10.7 µM
same,TGI,NCI-H322M lung,23.2 µM
same,GI50,TK-10 renal,8.76 µM
same,TGI,TK-10 renal,21.2 µM
same,GI50,SR leukemia,1.38 µM
same,TGI,SR leukemia,2.69 µM
same,GI50,BT-549 breast,2.19 µM
same,TGI,BT-549 breast,7.26 µM
same,GI50,MDA-MB-468 breast,3.19 µM
same,TGI,MDA-MB-468 breast,7.85 µM
same,GI50,NCI-H522 lung,2.47 µM
same,TGI,NCI-H522 lung,7.78 µM
same,GI50,SK-MEL-5 melanoma,1.74 µM
same,TGI,SK-MEL-5 melanoma,3.16 µM
same,GI50,PC-3 prostate,4.19 µM
same,TGI,PC-3 prostate,14.9 µM
same,GI50,UO-31 renal,10.6 µM
same,TGI,UO-31 renal,22.5 µM
same,GI50,RPMI-8226 leukemia,3.29 µM
same,TGI,RPMI-8226 leukemia,11.4 µM
same,GI50,SNB-75 CNS,1.55 µM
same,TGI,SNB-75 CNS,3.81 µM
same,GI50,SK-OV-3 ovarian,8.13 µM
same,TGI,SK-OV-3 ovarian,20.8 µM
same,GI50,HS 578T breast,1.69 µM
same,TGI,HS 578T breast,5.72 µM
same,GI50,IGROV1 ovarian,3.05 µM
same,TGI,IGROV1 ovarian,9.84 µM
same,GI50,UACC-62 melanoma,2.78 µM
same,TGI,UACC-62 melanoma,7.45 µM
same,GI50,CCRF-CEM leukemia,1.96 µM
same,TGI,CCRF-CEM leukemia,3.65 µM
same,GI50,K-562 leukemia,1.27 µM
same,TGI,K-562 leukemia,2.59 µM
same,GI50,U251 glioblastoma,3.56 µM
same,TGI,U251 glioblastoma,14.5 µM
